Entries after “also recorded” stand apart in the source; their conditions may differ.
Tests used:
[1] = test system: SH-SY5Y human neuroblastoma cells; test: Histochemical detection of oxidized thiols (disulfides) with CPM in cells; type: cell-based; details: tBH 1 mM vs vehicle control
Experimental: (§1) Histological labeling of oxidized thiols. Brains were fixed in 4% paraformaldehyde and processed as described (Betarbet, R.; Sherer, T. B.; MacKenzie, G.; Garcia-Osuna, M.; Panov, A. V.; Greenamyre, J. T. Chronic systemic pesticide exposure reproduces features of Parkinson's disease. Nat Neurosci 3:1301-1306; 2000). After cutting with a freezing microtome, sections were treated immediately in alkylating buffer (100 mM IAM, 100 mM NEM, TrisHCl, pH 6.8) to block free thiols. For cell culture studies, cells were seeded and cultured on coverslips, then fixed in 4% paraformaldehyde, 0.02% Triton-X100 supplemented with 100 mM IAM, 100 mM NEM to block free thiols. After three washes in PBS—10 minutes at room temperature—disulfides were reduced with 25 mM TCEP in PBS for 20 minutes. TCEP was omitted in the control reaction. The samples were labeled with CPM (0.5 mM final) in TrisHCl (0.1 M, pH 6.8) and then washed three times, for 10 minutes, in PBS.
Images were acquired using a laser scanning confocal microscope. The microscope was equipped with a spectral detector technology that provides precise wavelength separation of the emitted light, preventing light leakage between different fluorophores. The following detection ranges were used for each fluorophore: 450 nm-480 nm for UV probes; 515 nm-535 nm for Alexa488; 560 nm-574 nm for Cy3. […]

[2] = test system: thioredoxin-1 (trx-1); test: FRET between thiol-bound CPM and Alexa488-labeled trx-1 antibody in cells; type: cell-based; details: tBH-treated cells vs baseline
Experimental: as §1, with “The samples were labeled with CPM (0.5 mM final) in TrisHCl (0.1 M, pH 6.8) and then washed three times, for 10 minutes, in PBS.” left out
Direct FRET was detected by reading the acceptor emission (FITC derivative conjugated antibody) at 520 nm while exciting the donor (CPM) with the 405 nm laser. Alternatively, FRET was detected by acquiring the donor (CPM) emission before and after photobleaching of the acceptor fluorophore (Alexa488) with the 488 nm laser. FRET efficiency (Feff) was calculated by the confocal software (version 1.5) according to the equation Feff=1−(empre/empost), where Feff=FRET efficiency, empre=donor emission prebleaching, empost=donor emission post bleaching.

[3] = test system: thioredoxin-1 (trx-1); test: Redox western blot (10 kDa PEG-maleimide) of thioredoxin-1 in cells; type: cell-based; details: low millimolar concentrations of tBH
Experimental: Western blot analysis to detect proteins with oxidized cysteines. Cells were lysed in alkylating buffer (0.1M TrisHCl pH 6.8, 1% SDS, 100 mM IAM, 100 mM NEM). The lysate was sonicated on ice to disrupt high molecular weight DNA and incubated 30 minutes at room temperature to allow total alkylation of free Cys residues. 200 μg of alkylated proteins were precipitated with 5 volumes of ice-cold acetone and resuspended in 50 microliters of Tris-SDS buffer (0.1M TrisHCl, pH 7.4, 1% SDS). Disulfides were reduced by adding TCEP 5 mM final concentration. The samples were incubated 20 minutes at room temperature to allow complete reduction of disulfides to thiols. TCEP was removed with Micro Bio-spin Chromatography columns 6 (BIORAD, Hercules, Calif.). After the filtration step, the samples were in about 50 μL of 10 mM TrisHCl pH 7.4 (volume was adjusted to 50 μL as necessary). SDS was added to a 1% final concentration.
To label the previously oxidized (and now reduced) cysteines, polyethylene-glycol-conjugated maleimide (molecular weight 10 kDa, SunBio, Orinda, Calif.) was added to 50 micrograms of proteins, 1 mM final concentration, from a 10 mM stock in Tris-SDS buffer. After 1 hour incubation at room temperature, samples were precipitated with ice cold acetone and resuspended in 50 μL of SDS electrophoresis loading buffer. 10 μL (about 10 μg) were used for western blot analysis. […]

[4] = test system: dopaminergic neurons of the substantia nigra; test: Histological labeling of oxidized thiols in substantia nigra of rotenone-treated rats; type: in vivo, Lewis rats; details: chronic rotenone treatment vs control animal
Experimental: as §1
Following the thiol labeling, immunohistochemistry was performed according to standard procedures. Briefly, after a blocking step in 10% serum, samples were incubated over-night with primary antibody (tyrosine hydroxylase, Mab318, Chemicon, Temecula, Calif., 1:2000; OX42, MCA 275G AbD Serotec, Oxford, UK, 1:150; GFAP, Mab 3402, Chemicon, Temecula, Calif., 1:1000). Fluorescently labeled secondary antibodies were used for detection. […]

[5] = test system: substantia nigra; test: Imaging of carbonyls in substantia nigra of rotenone-treated animals; type: in vivo; details: rotenone-treated animal vs control animal
From the text: To detect carbonyls in fixed slices and perform microscopy studies, fluorescein-conjugated hydrazine is used (FITC-hydrazine, please see FIG. 19). As a positive control, carbonyl formation is induced by metal-catalyzed oxidation, treating the samples with iron (Fe^3+) and ascorbate (Amici, A, Levine, R L, Tsai, L and Stadtman, E R, (1989) Conversion of amino acid residues in proteins and amino acid homopolymers to carbonyl derivatives by metal-catalyzed oxidation reactions. J Biol Chem 264: 3341-6 and Halliwell, B and Gutteridge, J M, (1990) Role of free radicals and catalytic metal ions in human disease: an overview. Methods Enzymol 186: 1-85). In the confocal studies, a negative control can be performed preincubating the fixed slices with an excess of DNPH.
Protein carbonyls. Another oxidative modification of proteins is carbonyl formation. Typically, carbonyls are assayed by reacting protein homogenates with hydrazine compounds (e.g., dinitrophenylhydrazine; DNPH) and then measuring the reaction product spectrophotometrically, or with antibody-based techniques. We have used a fluorescent hydrazine compound to directly label carbonyls (FIG. 19). As with thiol labeling, this technique is amenable to FRET so that candidate proteins can be examined for carbonyl content and changes therein in pesticide intoxication.

[6] = test system: transferrin; test: Reducing and non-reducing Western blots of transferrin in substantia nigra; type: in vivo; details: chronic rotenone treatment vs control animal
From the text: In the lower panel, left and right, a loading control (39 kDa subunit of mitochondrial complex I) ensures that the initial amount of protein was the equal for all the lanes.

[7] = test system: human neuroblastoma cells; test: Fluorescent labeling of protein carbonyls (FITC-hydrazide) in rotenone-treated cells; type: cell-based; details: 50 nM rotenone, 24 hours, vs vehicle-treated cells
Experimental: Cells are fixed in cold methanol for 10 minutes at −20° C. Paraformaldehyde and other […] group-containing (and therefore carbonyl group-containing) fixatives should be avoided. The method can be successfully applied to tissues as well.
Carbonyls are labeled with fluorescein-conjugated hydrazide (FITC-NN, FIG. 1, Molecular Probes, cat #F-121). F121 is prepared fresh in dimethyl-formamide. As the reaction between the hydrazine and the carbonyls occurs in acidic environment, the labeling is carried out in 50 mM sodium acetate (pH 4). FITC-NN is used 2 microM final; incubation is carried on 2 hours at room temperature.
Samples are washed in phosphate buffer solution (PBS) for 5 minutes; this step is repeated three times.
From this step onward, a classical immunohistochemistry staining can be performed to detect proteins of interest.
Images are acquired with a laser scanning confocal microscope.

[8] = test system: Hsp60; test: FRET by acceptor photobleaching between FITC-NN carbonyl label and Cy3 anti-Hsp60 antibody in cells; type: cell-based; details: rotenone-treated cells
From the text: Anti-Hsp60 (Stressgen, used at 1:500) was conjugated with Cy3. The procedure can be carried out in a 96-well plate, which can be analyzed with a micro-plate spectrofluorometer. FRET between FITC-NN and a Cy3-labeled specific antibody can be studied to determine if the two fluorophores are in close proximity (<50 Å) and therefore if the protein of interest is oxidized. […] First, the acceptor fluorophore is photobleached over four cycles. In FIG. 3, Cy3 was the acceptor fluorophore and the protein of interest was Hsp60, where Cy3 conjugated with anti-Hsp60 antibody. Second, the emission of the acceptor fluorophore and of the donor fluorophore are determined and compared. If a significant increase in the donor emission is observed after photobleaching the acceptor fluorophore, then the two fluorophores are determined to be in close proximity. […] Therefore, the two fluorophores are in close proximity and indicate that the protein of interest, here Hsp60, is oxidized.

[9] = test system: dopaminergic neurons; test: Tyrosine hydroxylase, transferrin and oxidized thiol imaging in dopaminergic neurons treated with rotenone; type: cell-based; details: cells treated with rotenone vs control
[10] = test system: mitochondrial proteins containing oxidized thiols; test: Thiol-sepharose affinity purification of oxidized mitochondrial proteins from brain regions of rotenone-treated rats; type: in vivo, Lewis rats; details: rotenone animals vs control
From the text: Preparation of affinity resin. Activated thiol-sepharose resin 4B (Sigma, St. Louis, Mo., USA) was used in previous studies to purify thiol-containing proteins (Egorov, T. A.; Svenson, A.; Ryden, L.; Carlsson, J. A rapid and specific method for isolation of thiol-containing peptides from large proteins by thiol-disulfide exchange on a solid support. Proc Natl Acad Sci USA 72:3029-3033; 1975); the resin extent of binding was 1 micromol of thiols per mL of medium. The resin rehydrated in milliQ-grade distilled water, 30 minutes, gently shaking at 4° C. […]
In the first technique (FIG. 20), a starting sample (e.g., purified mitochondria from the ventral midbrain of control and rotenone-treated rats) is homogenized and then free thiols are alkylated. […] At this point, the sample can be run over a thiol affinity column and the eluate can be analyzed by SDS-PAGE and Coomassie staining. In an alternative strategy, after the reduction the sample can be reacted with ICAT (isotope coded affinity tag) reagents for mass spectrometry (Gygi, S P, Rist, B, Gerber, S A, Turecek, F, Gelb, M H and Aebersold, R, (1999) Quantitative analysis of complex protein mixtures using isotope-coded affinity tags. Nat Biotechnol 17: 994-9).

Row | SMILES | oxidized thiols (disulfides) labeling [1] | FRET between CPM and Alexa488 trx-1 antibody (thiol oxidation of Trx-1) [2] | thiol oxidation (disulfide formation) in trx-1 by redox western blot [3] | oxidized thiols in nigrostriatal dopaminergic (TH-positive) neurons [4] | carbonyls in substantia nigra [5] | oxidized transferrin form in non-reducing gel [6] | carbonyls (green fluorescence) [7] | FITC (donor) emission after photobleaching of Cy3 acceptor; indicates Hsp60 is oxidized [8] | transferrin (trf) level, colocalized with oxidized thiols by FRET [9] | oxidized mitochondrial proteins eluted from thiol affinity chromatography, striatum ([10]; striata) | oxidized mitochondrial proteins eluted from thiol affinity chromatography, substantia nigra ([10]; substantia nigra (ventral midbrain))
1 | CC(C)(C)OO [tBH, tert-butyl-hydroperoxide] | remarkable increase in disulfides; also recorded: dramatic increase of thiol labeling | clear increase in the signal; also recorded: marked increase in direct FRET | quickly induced the formation of disulfides in trx-1; also recorded: induced thiol oxidation in thioredoxin-1 |  |  |  |  |  |  |  | 
2 | C=C(C)[C@H]1Cc2c(ccc3c2O[C@@H]2COc4cc(OC)c(OC)cc4[C@@H]2C3=O)O1 [rotenone] |  |  |  | remarkable and very selective increase in oxidized thiols; also recorded: marked increase in oxidized thiols | marked increase in carbonyls | higher molecular weight form | detectable increase; also recorded: large increase in carbonyls | significant increase in FITC emission | accumulation of transferrin | No major differences | marked increase in thiol oxidation; also recorded: dramatic increase in oxidized proteins; also recorded: striking increase of oxidized proteins
